Where two headings read alike, the source gives them in different places. Where a SMILES comes first, the peptide text is derived from it. Bridges are numbered along the chain shown (N, C = ends). [ ]: non-standard residue; d: D form. The star is where a group is joined. hPhe(3-Cl-4-CF3) = N[C@@H](CCc1ccc(C(F)(F)F)c(Cl)c1)C(=O)O; NPrPhe(4-CF3) = CCCN[C@@H](Cc1ccc(C(F)(F)F)cc1)C(=O)O; NMeGly(cPent) = CN[C@H](C(=O)O)C1CCCC1; NMeD = CN[C@@H](CC(=O)O)C(=O)O; NMeL = CN[C@@H](CC(C)C)C(=O)O; Morpholide = C1CN(*)CCO1; Ac5c = NC1(C(=O)O)CCCC1; Aze = O=C(O)[C@@H]1CCN1; Sar = CNCC(=O)O

Test [1] concerns the target GDP-bound KRAS wild-type protein (Homo sapiens, UniProt P01116). As to the kind of experiment: Binding to KRAS by surface plasmon resonance (SPR), Single Cycle Kinetics. Conditions: GDP-bound KRAS wild-type protein, read-out: KRAS KD.
For test [2], the target named is GDP-bound NRAS wild-type protein (Homo sapiens, UniProt P01111). Put plainly: Binding to NRAS by surface plasmon resonance (SPR), Single Cycle Kinetics. Conditions: for NRAS/KRAS (ratio of KD value for NRAS to KD value for KRAS): SPR, GDP-bound NRAS wild-type protein vs GDP-bound KRAS wild-type protein; for NRAS/KRAS (ratio of KD value with respect to GDP-bound NRAS wild-type protein to KD value with respect to KRAS): SPR KD ratio NRAS/KRAS, class symbols.
Sequence of GDP-bound NRAS wild-type protein (P01111 whole entry): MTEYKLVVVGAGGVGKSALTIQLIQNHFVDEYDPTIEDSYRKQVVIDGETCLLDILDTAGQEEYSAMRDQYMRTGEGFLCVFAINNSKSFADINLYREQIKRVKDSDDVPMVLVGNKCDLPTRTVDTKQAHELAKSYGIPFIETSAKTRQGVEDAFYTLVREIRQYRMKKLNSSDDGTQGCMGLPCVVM

For test [3], the target named is GDP-bound HRAS wild-type protein (Homo sapiens, UniProt P01112). As to the kind of experiment: Binding to HRAS by surface plasmon resonance (SPR), Single Cycle Kinetics. Conditions: for HRAS/KRAS (ratio of KD value for HRAS to KD value for KRAS): SPR, GDP-bound HRAS wild-type protein vs GDP-bound KRAS wild-type protein; for HRAS/KRAS (ratio of KD value with respect to GDP-bound HRAS wild-type protein to KD value with respect to KRAS): SPR KD ratio HRAS/KRAS, class symbols.
Sequence of GDP-bound HRAS wild-type protein (P01112 whole entry): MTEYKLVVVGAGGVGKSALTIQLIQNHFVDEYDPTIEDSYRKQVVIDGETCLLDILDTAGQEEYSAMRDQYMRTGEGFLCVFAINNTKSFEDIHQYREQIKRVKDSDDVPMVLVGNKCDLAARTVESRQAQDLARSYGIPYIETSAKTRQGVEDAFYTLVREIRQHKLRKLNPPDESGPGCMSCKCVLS

Test [4] has as its system human lung cancer strain NCI-H441.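 Note: cell proliferation inhibition after four days measured by CellTiter-Glo.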
Setting [5] is: SPR Single Cycle Kinetics, 1:1 binding model.

Sequence of GDP-bound KRAS wild-type protein (P01116 whole entry): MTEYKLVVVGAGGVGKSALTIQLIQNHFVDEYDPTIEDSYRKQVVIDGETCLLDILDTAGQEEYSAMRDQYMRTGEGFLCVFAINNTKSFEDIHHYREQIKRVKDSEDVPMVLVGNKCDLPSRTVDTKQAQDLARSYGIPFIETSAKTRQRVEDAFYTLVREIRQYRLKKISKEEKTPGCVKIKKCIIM

Regarding `CCO[C@@H]1C[C@H]2C(=O)NC3(CCC3)C(=O)N(C)[C@@H](C(CC)CC)C(=O)N(C)[C@H](C(=O)N(C)C)CC(=O)N(C)[C@@H](COC)C(=O)N[C@@H]([C@@H](C)CC)C(=O)N(C)CC(=O)N(C)[C@H]3C/C=C\CCN(C3=O)[C@@H](Cc3ccc(C(F)(F)F)cc3)C(=O)N(C)CC(=O)N[C@@H](CCc3ccc4sccc4c3)C(=O)N2C1` [PP1229], in test [1] (SPR, Single Cycle Kinetics, 1:1 binding model), the Kd came out at 1.3 nM. Also, the “NRAS/KRAS (ratio of KD value for NRAS to KD value for KRAS)” value in test [2] (KD ratio class) was “A (a compound having 10 or more and less than 20 is denoted as A)”. The “HRAS/KRAS (ratio of KD value for HRAS to KD value for KRAS)” value in test [3] (KD ratio class) was “A (a compound having 10 or more and less than 20 is denoted as A)”. The IC50 in test [4] was found to be 144 nM.
As to `CCCN1C(=O)[C@@H]2CCN2C(=O)[C@H](C)NC(=O)[C@H]([C@@H](C)CC)NC(=O)[C@H](CC(C)C)N(C)C(=O)C[C@@H](C(=O)N2CCOCC2)N(C)C(=O)[C@H](C2CCCC2)N(C)C(=O)C2(CCCC2)NC(=O)[C@@H]2CCCN2C(=O)[C@H](CCc2ccc(C(F)(F)F)c(Cl)c2)NC(=O)CN(C)C(=O)[C@@H]1Cc1ccc(C(F)(F)F)cc1` [PP0078] ([NMeL]IA[Aze][NPrPhe(4-CF3)][Sar][hPhe(3-Cl-4-CF3)]P[Ac5c][NMeGly(cPent)][NMeD]-Morpholide; lactam N-11), the Kd in test [1] (setting [5]) was found to be 0.19 nM. Moreover, in test [2], the “NRAS/KRAS (ratio of KD value for NRAS to KD value for KRAS)” value was “C (A compound having a KD ratio of 0.1 or more and less than 3 is denoted as C)”. In test [3], the “HRAS/KRAS (ratio of KD value for HRAS to KD value for KRAS)” value is “B (a compound having 3 or more and less than 10 is denoted as B)”. This molecule also showed an IC50 in test [4] of 4.8 nM.
Take `CCC(CC)[C@H]1C(=O)N(C)[C@H](C(=O)N2CCCCC2)CC(=O)N(C)[C@@H](COC)C(=O)N[C@@H]([C@@H](C)CC)C(=O)N(C)CC(=O)N(C)[C@H]2C/C=C\CCN(C2=O)[C@@H](Cc2ccc(C(F)(F)F)cc2)C(=O)N(C)CC(=O)N[C@@H](CCc2ccc(Cl)c(Cl)c2)C(=O)N2C[C@H](OC(C)C)C[C@H]2C(=O)NC2(CC(C)(C)C2)C(=O)N1C` [PP2612]: in test [1] (setting [5]), the Kd turned out to be 2.4 nM. Also, the “NRAS/KRAS (ratio of KD value with respect to GDP-bound NRAS wild-type protein to KD value with respect to KRAS)” value in test [2] is reported as “AA (a compound having 20 or more is denoted as AA)”. For the same molecule, the “HRAS/KRAS (ratio of KD value with respect to GDP-bound HRAS wild-type protein to KD value with respect to KRAS)” value in test [3] was “A (a compound having 10 or more and less than 20 is denoted as A)”. The molecule also came in with an IC50 in test [4] of 199 nM.
On to `CCOC[C@H]1C(=O)N[C@@H]([C@@H](C)CC)C(=O)N(C)CC(=O)N(C)[C@H]2C/C=C\CCN(C2=O)[C@@H](CC2CCCCC2)C(=O)N(C)CC(=O)N[C@@H](CCc2cc(F)c(C(F)(F)F)c(F)c2)C(=O)N2C[C@H](OCC)C[C@H]2C(=O)NC2(CC(C)(C)C2)C(=O)N(C)[C@@H](C(CC)CC)C(=O)N(C)[C@H](C(=O)N(C)C)CC(=O)N1C` [PP2479], for which, in test [1] (SPR, Single Cycle Kinetics), the Kd amounted to 1.4 nM. Moreover, the “NRAS/KRAS (ratio of KD value for NRAS to KD value for KRAS)” value in test [2] is “AA (a compound having 20 or more is denoted as AA)”. Moreover, the “HRAS/KRAS (ratio of KD value for HRAS to KD value for KRAS)” value in test [3] was “A (a compound having 10 or more and less than 20 is denoted as A)”. The midpoint of inhibition in test [4], the IC50, lay at 26 nM.
As to `CCC(CC)[C@H]1C(=O)N(C)[C@H](C(=O)N(C)C)CC(=O)N(C)[C@@H](COC)C(=O)N[C@@H]([C@@H](C)CC)C(=O)N(C2CC2)CC(=O)N(C)[C@H]2C/C=C\CCN(C2=O)[C@@H](Cc2ccc(C)cc2)C(=O)N(C)CC(=O)N[C@@H](CCc2cc(F)c(C(F)(F)F)c(F)c2)C(=O)N2C[C@H](OC(C)C)C[C@H]2C(=O)NC2(CC(C)(C)C2)C(=O)N1C` [PP2572], in test [1] (setting [5]), the Kd worked out at 1.2 nM. Also, the “NRAS/KRAS (ratio of KD value with respect to GDP-bound NRAS wild-type protein to KD value with respect to KRAS)” value in test [2] was “A (a compound having 10 or more and less than 20 is denoted as A)”. In test [3], the “HRAS/KRAS (ratio of KD value with respect to GDP-bound HRAS wild-type protein to KD value with respect to KRAS)” value is “A (a compound having 10 or more and less than 20 is denoted as A)”. The molecule further gave an IC50 in test [4] of 82.7 nM.

These data come from US20240158446A1, “CYCLIC COMPOUND HAVING SELECTIVE INHIBITORY ACTION ON KRAS OVER HRAS AND NRAS” (CHUGAI SEIYAKU KABUSHIKI KAISHA, priority 2021, published 2024).
